What was measured:
[1] = molecular target: T1, HCV polymerase (NS5B) type 1b (Hepatitis C virus genotype 1b, UniProt P26663); test: Assay of enzyme (HCV polymerase) inhibitory activity, type 1b enzyme; format: biochemical, HCV BK strain (type 1b); conditions: HCV polymerase inhibitory activity IC50, 1b, type 1b enzyme
T1 construct: a region encoding NS5B (J Virol 1991 March, 65(3), 1105-13, 544 amino acids after deletion of 47 amino acids on the C-terminal); 6xHis (C); made in house; host or cells: Escherichia coli
Summary of the method: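 IC50 derived from [3H]UTP incorporation into TCA-insoluble RNA, compared with and without test compound. Reaction (25 °C, 60 min, Tris pH 7.5, 5 mM MgCl2): E. coli-expressed 1b NS5B Δ47 with His tag at 0.5 μg/ml, 5 μg/ml run-off substrate RNA, ATP/GTP/CTP 50 μM, UTP 2 μM.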

[2] = molecular target: T2, HCV polymerase (NS5B) type 1a (Hepatitis C virus genotype 1a, UniProt P26664); test: Assay of enzyme (HCV polymerase) inhibitory activity, type 1a enzyme; format: biochemical, HCV type 1a (cloned from the blood of patients); conditions: HCV polymerase inhibitory activity IC50, 1a, type 1a enzyme
T2 construct: made in house; host or cells: Escherichia coli (by the 'similar method' of the 1b enzyme)
Summary of the method: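 Reactions ran 60 min at 25° C in 20 mM Tris-HCl pH 7.5, 5 mM MgCl2, 50 mM NaCl, holding genotype 1a NS5B (1.5 μg/ml, Δ47 C-terminus, 6His), substrate RNA 5 μg/ml, UTP 2 μM with tritiated UTP and other NTPs 50 μM. IC50 derived from incorporated radiolabel in filter-trapped RNA relative to uninhibited reaction.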

| SMILES | IC50 [1] | IC50 [2] |
| --- | --- | --- |
| O=C(NCc1ccc(OC(F)F)cc1)[C@H]1CN(c2nc3nc(C4CC4)ncc3s2)CCN1S(=O)(=O)c1ccc(OC(F)(F)F)cc1 [Example 1017, (R)-4-(5-cyclopropyl-thiazolo[4,5-d]pyrimidin-2-yl)-1-(4-trifluoromethoxy-benzenesulfonyl)-piperazine-2-carboxylic acid 4-difluoromethoxy-benzylamide] | < 100 nM | < 100 nM |
| O=C(NCc1ccc(OC(F)F)cc1)[C@H]1CN(c2nc3nc(C4CC4)ncc3s2)CCN1S(=O)(=O)c1ccc(OC(F)(F)C(F)F)cc1 [Example 1018, (R)-4-(5-cyclopropyl-thiazolo[4,5-d]pyrimidin-2-yl)-1-[4-(1,1,2,2-tetrafluoro-ethoxy)-benzenesulfonyl]-piperazine-2-carboxylic acid 4-difluoromethoxy-benzylamide] | < 100 nM | < 100 nM |
| Cc1cc(=O)nc2sc(N3CCN(S(=O)(=O)c4ccc(OC(F)(F)F)cc4)[C@@H](C(=O)NCc4ccc(OC(F)(F)F)cc4)C3)nn12 [Example 1019, (R)-4-(5-methyl-7-oxo-7H-[1,3,4]thiadiazolo[3,2-a]pyrimidin-2-yl)-1-(4-trifluoromethoxy-benzenesulfonyl)-piperazine-2-carboxylic acid 4-trifluoromethoxy-benzylamide] | < 100 nM | < 100 nM |
| O=C(NCc1ccc(OC(F)(F)F)cc1)[C@H]1CN(c2nc3nc(C4CC4)ncc3s2)CCN1S(=O)(=O)c1ccc(OC(F)(F)C(F)F)cc1 [Example 1020, (R)-4-(5-cyclopropyl-thiazolo[4,5-d]pyrimidin-2-yl)-1-[4-(1,1,2,2-tetrafluoro-ethoxy)-benzenesulfonyl]-piperazine-2-carboxylic acid 4-trifluoromethoxy-benzylamide] | < 100 nM | < 100 nM |
| Nc1nc(C(F)(F)F)nc2nc(N3CCN(S(=O)(=O)c4ccc(OC(F)(F)F)cc4)[C@@H](C(=O)NCc4ccc(OC(F)(F)F)cc4)C3)sc12 [Example 1021, (R)-4-(7-amino-5-trifluoromethyl-thiazolo[4,5-d]pyrimidin-2-yl)-1-(4-trifluoromethoxy-benzenesulfonyl)-piperazine-2-carboxylic acid 4-trifluoromethoxy-benzylamide] | < 100 nM | < 100 nM |
| COc1nc(C(F)(F)F)nc2nc(N3CCN(S(=O)(=O)c4ccc(OC(F)(F)F)cc4)[C@@H](C(=O)NCc4ccc(OC(F)(F)F)cc4)C3)sc12 [Example 1022, (R)-4-(7-methoxy-5-trifluoromethyl-thiazolo[4,5-d]pyrimidin-2-yl)-1-(4-trifluoromethoxy-benzenesulfonyl)-piperazine-2-carboxylic acid 4-trifluoromethoxy-benzylamide] | 100 to 1000 nM | 100 to 1000 nM |
| O=C(NCc1ccc(OC(F)F)cc1)[C@H]1CN(c2nc3nc(C4CC4)ncc3s2)CCN1S(=O)(=O)c1ccc(C(F)(F)F)cc1 [Example 1023, (R)-4-(5-cyclopropyl-thiazolo[4,5-d]pyrimidin-2-yl)-1-(4-trifluoromethyl-benzenesulfonyl)-piperazine-2-carboxylic acid 4-difluoromethoxy-benzylamide] | < 100 nM | < 100 nM |
| CC(C)(C)c1ncc2sc(N3CCN(S(=O)(=O)c4ccc(OC(F)(F)F)cc4)[C@@H](C(=O)NCc4ccc(OC(F)(F)F)cc4)C3)nc2n1 [Example 1024, (R)-4-(5-tert-butyl-thiazolo[4,5-d]pyrimidin-2-yl)-1-(4-trifluoromethoxy-benzenesulfonyl)-piperazine-2-carboxylic acid 4-trifluoromethoxy-benzylamide] | < 100 nM | < 100 nM |
| CC(C)(C)c1ncc2sc(N3CCN(S(=O)(=O)c4ccc(C(F)(F)F)cc4)[C@@H](C(=O)NCc4ccc(OC(F)(F)F)cc4)C3)nc2n1 [Example 1025, (R)-4-(5-tert-butyl-thiazolo[4,5-d]pyrimidin-2-yl)-1-(4-trifluoromethyl-benzenesulfonyl)-piperazine-2-carboxylic acid 4-trifluoromethoxy-benzylamide] | < 100 nM | < 100 nM |
| Cc1c(Cl)c(=O)nc2sc(N3CCN(S(=O)(=O)c4ccc(OC(F)(F)F)cc4)[C@@H](C(=O)NCc4ccc(OC(F)(F)F)cc4)C3)nn12 [Example 1026, (R)-4-(6-chloro-5-methyl-7-oxo-7H-[1,3,4]thiadiazolo[3,2-a]pyrimidin-2-yl)-1-(4-trifluoromethoxy-benzenesulfonyl)-piperazine-2-carboxylic acid 4-trifluoromethoxy-benzylamide] | < 100 nM | < 100 nM |
| Cc1cc(=O)nc2sc(N3CCN(S(=O)(=O)c4ccc(OC(F)(F)F)cc4)[C@@H](C(=O)NCc4ccc(OC(F)F)cc4)C3)nn12 [Example 1027, (R)-4-(5-methyl-7-oxo-7H-[1,3,4]thiadiazolo[3,2-a]pyrimidin-2-yl)-1-(4-trifluoromethoxy-benzenesulfonyl)-piperazine-2-carboxylic acid 4-difluoromethoxy-benzylamide] | < 100 nM | < 100 nM |
| Cc1cc(=O)nc2sc(N3CCN(S(=O)(=O)c4ccc(C(F)(F)F)cc4)[C@@H](C(=O)NCc4ccc(OC(F)(F)F)cc4)C3)nn12 [Example 1028, (R)-4-(5-methyl-7-oxo-7H-[1,3,4]thiadiazolo[3,2-a]pyrimidin-2-yl)-1-(4-trifluoromethyl-benzenesulfonyl)-piperazine-2-carboxylic acid 4-trifluoromethoxy-benzylamide] | < 100 nM | < 100 nM |
| Cc1nc(C(N)=O)c2sc(N3CCN(S(=O)(=O)c4ccc(OC(F)(F)F)cc4)[C@@H](C(=O)NCc4ccc(OC(F)(F)F)cc4)C3)nc2n1 [Example 1029, 5-methyl-2-[(R)-4-(4-trifluoromethoxy-benzenesulfonyl)-3-(4-trifluoromethoxy-benzylcarbamoyl)-piperazin-1-yl]-thiazolo[4,5-d]pyrimidine-7-carboxylic acid amide] | < 100 nM | 100 to 1000 nM |
| Cn1ncc2sc(N3CCN(S(=O)(=O)c4ccc(C(F)(F)F)cc4)[C@@H](C(=O)NCc4ccc(OC(F)(F)F)cc4)C3)nc2c1=O [Example 1030, (R)-4-(5-methyl-4-oxo-4,5-dihydro-thiazolo[4,5-d]pyridazin-2-yl)-1-(4-trifluoromethyl-benzenesulfonyl)-piperazine-2-carboxylic acid 4-trifluoromethoxy-benzylamide] | < 100 nM | < 100 nM |
| O=C(NCc1ccc(OC(F)(F)F)cc1)[C@H]1CN(c2nn3c(=O)c(C(F)(F)F)nnc3s2)CCN1S(=O)(=O)c1ccc(OC(F)(F)F)cc1 [Example 1031, (R)-4-(4-oxo-3-trifluoromethyl-4H-[1,3,4]thiadiazolo[2,3-c][1,2,4]triazin-7-yl)-1-(4-trifluoromethoxy-benzenesulfonyl)-piperazine-2-carboxylic acid 4-trifluoromethoxy-benzylamide] | 100 to 1000 nM | 100 to 1000 nM |
| Cc1cc(=O)nc2sc(N3CCN(S(=O)(=O)c4ccc(C(F)(F)F)cc4)[C@@H](C(=O)NCc4ccc(OC(F)F)cc4)C3)nn12 [Example 1032, (R)-4-(5-methyl-7-oxo-7H-[1,3,4]thiadiazolo[3,2-a]pyrimidin-2-yl)-1-(4-trifluoromethyl-benzenesulfonyl)-piperazine-2-carboxylic acid 4-difluoromethoxy-benzylamide] | < 100 nM | < 100 nM |
| O=C(O)c1ncc2sc(N3CCN(S(=O)(=O)c4ccc(OC(F)(F)F)cc4)[C@@H](C(=O)NCc4ccc(OC(F)(F)F)cc4)C3)nc2n1 [Example 1033, 2-[(R)-4-(4-trifluoromethoxy-benzenesulfonyl)-3-(4-trifluoromethoxy-benzylcarbamoyl)-piperazin-1-yl]-thiazolo[4,5-d]pyrimidine-5-carboxylic acid] | < 100 nM | < 100 nM |
| Nc1nnnc2nc(N3CCN(S(=O)(=O)c4ccc(OC(F)(F)F)cc4)[C@@H](C(=O)NCc4ccc(OC(F)(F)F)cc4)C3)sc12 [Example 1034, (R)-4-(4-amino-thiazolo[4,5-d][1,2,3]triazin-6-yl)-1-(4-trifluoromethoxy-benzenesulfonyl)-piperazine-2-carboxylic acid 4-trifluoromethoxy-benzylamide] | < 100 nM | < 100 nM |
| COc1nnnc2nc(N3CCN(S(=O)(=O)c4ccc(OC(F)(F)F)cc4)[C@@H](C(=O)NCc4ccc(OC(F)(F)F)cc4)C3)sc12 [Example 1035, (R)-4-(4-methoxy-thiazolo[4,5-d][1,2,3]triazin-6-yl)-1-(4-trifluoromethoxy-benzenesulfonyl)-piperazine-2-carboxylic acid 4-trifluoromethoxy-benzylamide] | < 100 nM | < 100 nM |
| N#Cc1ncc2sc(N3CCN(S(=O)(=O)c4ccc(OC(F)(F)F)cc4)[C@@H](C(=O)NCc4ccc(OC(F)F)cc4)C3)nc2n1 [Example 1036, (R)-4-(5-cyano-thiazolo[4,5-d]pyrimidin-2-yl)-1-(4-trifluoromethoxy-benzenesulfonyl)-piperazine-2-carboxylic acid 4-difluoromethoxy-benzylamide] | < 100 nM | < 100 nM |
